Measured values: patent US9393317B2, “Peptide-conjugated oligonucleotide therapeutic and method of making and using same” (Sloan-Kettering Institute for Cancer Research, priority 2008, dated 2016)

What was measured:
[1] = test system: 4T1 (ATCC CRL-2539) tumor allograft; test: In vivo phage display panning, breast carcinoma model, tumor vascular homing phage; parameters: species or system mouse; conditions: tumors resected 5-7 h post phage injection, 3-4 rounds of panning
Procedure: (§1) To identify peptide sequences displaying homing potential to specific tumors or to the vasculature of specific tumors, in vivo phage display panning was performed. Utilizing commercially available M13-based phage libraries (PhD-7 Prod# E8100S and PhD-C7C E8120S, New England Biolabs, Ipswich, Mass.) phage were isolated that were enriched after 3-4 rounds of panning in different tumor models. These phage particles display surface peptides that potentially confer homing and cellular uptake capabilities.
Panning was conducted in 4T1 (ATCC CRL-2539) tumor allograft bearing mice. Tumors were resected 5-7 h post phage injection.

[2] = test system: SVR (ATCC CRL-2280, a murine endothelial cell line) tumor allograft; test: In vivo phage display panning, angiosarcoma model; parameters: species or system mouse; conditions: tumors resected 24 h post phage injection, 3-4 rounds of panning
Procedure: as §1
Panning was conducted in SVR (ATCC CRL-2280, a murine endothelial cell line) tumor allograft bearing mice. Tumors were resected 24 h post phage injection.

[3] = test system: tumor endothelium of high-grade malignant glioma; test: Accumulation of FITC-labeled Grp78-GMBS-ASId1 in high-grade malignant glioma mouse model; assay type: in vivo; conditions: retro-orbital injection, four hours post injection
Excerpt: In a further specific example, the therapeutic agent combines a Grp78 targeting peptide with an Id1 targeting antisense oligonucleotide. A therapeutic agent of this type was synthesized using the Grp-78 targeting peptide of Seq. ID No. 4, GMBS as the HBL, and Id1 antisense of Seq. ID No. 2, labeled with FITC and injected retro-orbitally into a mouse model with a high-grade malignant glioma. Four hours post injection the mouse was sacrificed, and tissue was processed for imaging.

[4] = test system: 4T1 (ATCC CRL-2539) tumor allograft; test: In vivo phage display panning, breast carcinoma model, tumor cell homing phage; parameters: species or system mouse; conditions: tumors resected 24 h post phage injection, 3-4 rounds of panning
Procedure: as §1
Panning was conducted in 4T1 (ATCC CRL-2539) tumor allograft bearing mice. Tumors were resected 24 h post phage injection.

[5] = test system: MMTV-HER2/neu (YD) Id1−/− tumor cells; test: MMTV-HER2/neu (YD) Id1−/− allograft model, osmotic pumps, with and without 17-AAG; assay type: in vivo, mouse
Excerpt: Proc Natl Acad Sci USA 100, 12337-42 (2003)), perhaps due to the requirement of Hsp90 for maintaining Hif1-alpha or HER2/neu stability. Id1-PCAOs were therefore tested in combination with 17-AAG in the MMTV-HER2/neu (YD) Id1-/- allograft model. The Id1-PCAO was delivered in this prolonged experiment via subcutaneously implanted osmotic pumps (7 nmol/d). 17-AAG was given by intraperitoneal injection according to an established protocol, on 3 consecutive days per week after tumor establishment. As controls, saline or the un-conjugated components of the Id1-PCAO (F3-peptide and Id1-AO each at 20 nmol/d) were administered. […] To further control for non-specific effects we repeated the experiment using the same tumor model and added […] which was delivered at the same rate as the Id1-PCAO (7 nmol/d) and the F3-peptide without addition of Id1-AO (20 nmol/d) as control substances. […] The decrease in Id1-positive cells after administration of Id1-PCAO alone was less dramatic than in the intravenous protocol described above. This might be due to the slight decrease in dosage and the changed route of administration (s.c. vs. i.v.). […] Alternatively, animals were implanted s.c. with osmotic pumps (Durect Corp., Cupertino, Calif.) that delivered 7 nmol/d Id1-PCAO (3.5 mg/kg BW) in TBS over a 14 day period. Controls received 20 nmol/d F3-peptide plus 20 nmol/d Id1-AO (in TBS) or TBS. 2×106 MMTV-HER2/neu (YD) Id1-/- tumor cells were injected into the left flank 24 h after implantation of the pumps. After the 14 days treatment period, pumps were replaced using a model with a work period of 7 days. […] Control animals received DMSO:EPL 1:1 i.p at the same schedule. Tumor size was measured using a calliper. Volume was calculated as V=(/6×longest diameter×perpendicular diameter2). Image acquisition and analysis: Epifluorescence, bright field and phase contrast images were acquired using Zeiss Axiostar 200 microscopes. Leica laser confocal microscopes were used for co-localisation studies. For quantification, large fields of the tissue sections were acquired using an automated image acquisition and montaging system (Zeiss Axiostar 200M microscope with MetaMorph Software, Molecular Devices, Sunnyvale, Calif.). […] Three or 4 large field images were used to quantify each section. Stained areas were quantified using MetaMorph or ImageJ software (http://rsb.info.nih.gov/ij/). Images were threshholded and stained area (CD31) was calculated or particles per field were counted (Id1 or Hif1 positive cells). To quantify extent of haemorrhage, H&E whole tumor sections were imaged with a 5× objective and evaluated using the colour threshold function of the Metamorph software.

Molecule | Frequency of enriched sequence [1] | Frequency of enriched sequence [4] | further results
22 (GHSKAMY; Breast carcinoma tumor vascular homing probe) [compound 22] | 4/12 |  | 
30 (CPAGQNAHC) [compound 30] | 1/12 |  | 
11 (MFEPVLP; Angiosarcoma homing probe) [compound 11] |  |  | Frequency of enriched sequence [2]: 1/15
29 (CLPRHDPYC) [compound 29] | 1/12 |  | 
Grp78-GMBS-ASId1: Grp-78 targeting peptide of Seq. ID No. 4, GMBS as the HBL, Id1 antisense of Seq. ID No. 2, labeled with FITC (chain WIFPWIQL; antisense gcaccagctccttgaggcgugag; GMBS linker, FITC label; GRP78 homing peptide; antisense oligonucleotide targeting ID1.) |  |  | accumulation in imaged tissue [3]: accumulate around tumor blood vessels; blood brain barrier crossing [3]: crossed the blood brain barrier
18 (KYESAPT; Breast Carcinoma homing probe) [compound 18] |  | 1/12 | 
27 (HESTWGP; Breast carcinoma tumor vascular homing probe) [compound 27] | 1/12 |  | 
C=CCNC1=C2C[C@@H](C)C[C@H](OC)[C@H](O)[C@@H](C)/C=C(\C)[C@H](OC(N)=O)[C@@H](OC)/C=C\C=C(/C)C(=O)NC(=CC1=O)C2=O [17-AAG, 17-(allylamino)-17-demethoxygeldanamycin] |  |  | tumor growth, agent alone ([5]; Id1-PCAO 7 nmol/d s.c. pumps, F3 and Id1-AO each 20 nmol/d, 17-AAG i.p. 3 consecutive days per week, FIG. 7): delayed tumor growth; Hif1-alpha expression ([5]; mouse, in vivo): counteracted this response; Id1-positive endothelial cells in the tumor, agent alone ([5]; mouse, in vivo): decrease of Id1-positive endothelial cells in the tumor; vascular density ([5]; mouse, in vivo): decreased vascular density
15 (KWGSNNL; Breast Carcinoma homing probe) [compound 15] |  | 4/12 | 
23 (GHGASIS; Breast carcinoma tumor vascular homing probe) [compound 23] | 1/12 |  | 
28 (CDPRNPNWC; Breast carcinoma tumor vascular homing probe) [compound 28] | 1/12 |  | 
19 (TSMTSYR; Breast Carcinoma homing probe) [compound 19] |  | 1/12 | 
24 (NLLAPAG; Breast carcinoma tumor vascular homing probe) [compound 24] | 1/12 |  | 
17 (DSTRPHY; Breast Carcinoma homing probe) [compound 17] |  | 2/12 | 
10 (FPGGYTP; Angiosarcoma homing probe) [compound 10] |  |  | Frequency of enriched sequence [2]: 11/15
12 (TLSKQST; Angiosarcoma homing probe) [compound 12] |  |  | Frequency of enriched sequence [2]: 1/15
21 (HTPMALE; Breast Carcinoma homing probe) [compound 21] |  | 1/12 | 
25 (HDLPAVR; Breast carcinoma tumor vascular homing probe) [compound 25] | 1/12 |  | 
20 (EKNLTRP; Breast Carcinoma homing probe) [compound 20] |  | 1/12 | 
26 (AMPLPVP; Breast carcinoma tumor vascular homing probe) [compound 26] | 1/12 |  | 
16 (YSMPAPV; Breast Carcinoma homing probe) [compound 16] |  | 2/12 | 
14 (ERVLMQV; Angiosarcoma homing probe) [compound 14] |  |  | Frequency of enriched sequence [2]: 1/15
13 (TSLKMQV; Angiosarcoma homing probe) [compound 13] |  |  | Frequency of enriched sequence [2]: 1/15
